Experiments:
NLRP3 [1] = molecular target: T1, NLRP3 (Homo sapiens, UniProt Q96P20); assay: THP-1 cells pyroptosis assay; assay type: cell-based; set-up: Seed THP-1 cells (25,000 cells/well) containing 1.0 μg/ml LPS; host or cells: THP-1 cells, LPS-primed, nigericin-stimulated; details: 1.0 μg/ml LPS, compound 3 hrs, nigericin 5 μM 1 hr, resazurin readout
Procedure: THP-1 cells (ATCC #TIB-202) were grown in RPMI containing L-glutamine (Gibco #11835) supplemented with 1 mM sodium pyruvate (Sigma #S8636) and penicillin (100 units/ml)/streptomycin (0.1 mg/ml) (Sigma #P4333) in 10% Fetal Bovine Serum (FBS) (Sigma #F0804). The cells were routinely passaged and grown to confluency (˜10^6 cells/ml). On the day of the experiment, THP-1 cells were harvested and resuspended into RPMI medium (without FBS). The cells were then counted and viability (>90%) checked by Trypan blue (Sigma #T8154). Appropriate dilutions were made to give a concentration of 625,000 cells/ml. To this diluted cell solution was added LPS (Sigma #L4524) to give a […] Final Assay Concentration (FAC). 40 μl of the final preparation was aliquoted into each well of a 96-well plate. The plate thus prepared was used for compound screening.
The following method step-by-step assay was followed for compound screening. • 1. Seed THP-1 cells (25,000 cells/well) containing 1.0 μg/ml LPS in 40 μl of RPMI medium (without FBS) in 96-well, black walled, clear bottom cell culture plates coated with poly-D-lysine (VWR #734-0317) • 2. Add 5 μl compound (8 points half-log dilution, with 10 μM top dose) or vehicle (DMSO 0.1% FAC) to the appropriate wells • 3. Incubate for 3 hrs at 37° C., 5% CO2 • 4. Add 5 μl nigericin (Sigma #N7143) (FAC 5 μM) to all wells • 5. Incubate for 1 hr at 37° C., 5% CO2 • 6. At the end of the incubation period, spin plates at 300×g for 3 mins and remove supernatant • 7. Then add 50 μl of resazurin (Sigma #R7017) (FAC 100 μM resazurin in RPMI medium without FBS) and incubate plates for a further 1-2 hrs at 37° C. and 5% CO2 • 8. Plates were read in an Envision reader at Ex 560 nm and Em 590 nm • 9. IC50 data is fitted to a non-linear regression equation (log inhibitor vs response-variable slope 4-parameters) 96-well Plate Map

NLRP3 [2] = molecular target: T1, NLRP3; assay: Human whole blood IL-1β release assay; assay type: cell-based; set-up: Human whole blood in Li-heparin tubes was obtained from healthy donors; from tissue; host or cells: human whole blood from healthy volunteer donors, LPS-primed, nigericin-stimulated; details: 1 μg/ml LPS, compound 3 hrs, nigericin 10 μM 1 hr, IL-1β in supernatant (AlphaLisa), read-out: HWB IC50
Procedure: For systemic delivery, the ability to inhibit NLRP3 when the compounds are present within the bloodstream is of great importance. For this reason, the NLRP3 inhibitory activity of a number of compounds in human whole blood was investigated in accordance with the following protocol.
Human whole blood in Li-heparin tubes was obtained from healthy donors from a volunteer donor panel. • 1. Plate out 80 μl of whole blood containing 1 μg/ml of LPS in 96-well, clear bottom cell culture plate (Corning #3585) • 2. Add 10 μl compound (8 points half-log dilution with 10 μM top dose) or vehicle (DMSO 0.1% FAC) to the appropriate wells • 3. Incubate for 3 hrs at 37° C., 5% CO2 • 4. Add 10 μl nigericin (Sigma #N7143) (10 μM FAC) to all wells • 5. Incubate for 1 hr at 37° C., 5% CO2 • 6. At the end of the incubation period, spin plates at 300×g for 5 mins to pellet cells and remove 20 μl of supernatant and add to 96-well v-bottom plates for IL-1β analysis (note: these plates containing the supernatants can be stored at −80° C. to be analysed at a later date) • 7. IL-1β was measured according to the manufacturer protocol (Perkin Elmer-AlphaLisa IL-1 Kit AL220F-5000) • 8. IC50 data is fitted to a non-linear regression equation (log inhibitor vs response-variable slope 4-parameters)

T1 sequence (Q96P20 whole entry): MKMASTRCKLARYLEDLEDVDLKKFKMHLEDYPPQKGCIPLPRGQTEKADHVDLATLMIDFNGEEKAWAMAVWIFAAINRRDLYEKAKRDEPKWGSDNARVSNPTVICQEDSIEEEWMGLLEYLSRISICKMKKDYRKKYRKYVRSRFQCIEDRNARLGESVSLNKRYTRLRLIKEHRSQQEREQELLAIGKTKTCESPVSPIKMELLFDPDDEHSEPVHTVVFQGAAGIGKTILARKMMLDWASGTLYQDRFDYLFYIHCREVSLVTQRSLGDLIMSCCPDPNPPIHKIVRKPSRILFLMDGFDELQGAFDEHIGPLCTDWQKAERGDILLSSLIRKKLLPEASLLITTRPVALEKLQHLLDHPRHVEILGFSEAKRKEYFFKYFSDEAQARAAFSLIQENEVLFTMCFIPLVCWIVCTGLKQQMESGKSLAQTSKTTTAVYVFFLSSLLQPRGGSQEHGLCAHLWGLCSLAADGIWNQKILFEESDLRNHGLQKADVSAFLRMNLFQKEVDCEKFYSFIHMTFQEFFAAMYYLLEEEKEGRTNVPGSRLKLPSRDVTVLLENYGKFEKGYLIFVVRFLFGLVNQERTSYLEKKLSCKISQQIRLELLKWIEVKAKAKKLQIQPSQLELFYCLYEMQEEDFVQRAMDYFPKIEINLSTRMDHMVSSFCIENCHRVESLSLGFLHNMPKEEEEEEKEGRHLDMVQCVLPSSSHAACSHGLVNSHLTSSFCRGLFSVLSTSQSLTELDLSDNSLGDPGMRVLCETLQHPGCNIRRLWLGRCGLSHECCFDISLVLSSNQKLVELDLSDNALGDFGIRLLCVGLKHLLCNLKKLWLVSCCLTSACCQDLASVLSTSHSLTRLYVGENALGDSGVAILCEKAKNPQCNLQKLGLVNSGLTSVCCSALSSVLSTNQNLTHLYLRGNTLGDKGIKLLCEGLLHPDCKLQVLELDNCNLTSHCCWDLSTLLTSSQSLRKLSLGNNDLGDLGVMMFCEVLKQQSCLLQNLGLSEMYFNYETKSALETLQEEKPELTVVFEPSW

Structure (SMILES) | IC50 (NLRP3 [1]) [nM] | IC50 (NLRP3 [2]) [nM]
CC1(C)COc2cc(ccn2)-c2ccc3c(c2Nc2nnc([nH]2)S(=O)(=O)c2cccc1c2)CCC3 [Example 8, 22,22-dimethyl-24-oxa-16 λ^6-thia-11,13,14,26,31-pentazahexacyclo-[23.3.1.1^12,15.1^17,21.0^2,10.0^5,9] hentriaconta-1(28),2,4,9,12,14,17,19,21(30),25(29),26-undecaene 16,16-dioxide] | ≤ 5000 | ≤ 10000
CN1CCOc2cc(ccn2)-c2ccc3c(c2Nc2nnc([nH]2)S(=O)(=O)N2CCC1CC2)CCC3 [Example 9, 25-methyl-22-oxa-2λ^6-thia-1,4,5,7,20,25,32-heptaazahexacyclo-[24.2.2.1^3,6.1^17,21.0^8,16.0^9,13]dotriaconta-3,5,8,13,15,17,19,21(31)-octaene-2,2-dioxide] | ≤ 500 | ≤ 500
CN1CCOc2cc(ccn2)-c2ccc3c(c2Nc2nnc([nH]2)S(=O)(=O)N2CC(C1)C2)CCC3 [Example 11, 21-methyl-24-oxa-16λ^6-thia-11,13,14,17,21,26,31-heptaazahexacyclo-[23.3.1.1^12,15.1^17,19.0^2,10.0^5,9]hentriaconta-1(28),2,4,9,12,14,25(29),26-octaene-16,16-dioxide] | ≤ 100 | ≤ 500

Now from value to compound:

IC50 (NLRP3 [1]) [nM] | IC50 (NLRP3 [2]) [nM] | Structure (SMILES)
≤ 500 | ≤ 500 | O=S1(=O)c2nnc([nH]2)Nc2c(ccc3c2CCC3)-c2ccnc(c2)OCCN2CCCC23CCN1CC3 [Example 5, 8-oxa-28λ^6-thia-5,10,23,25,26,29,34-heptazaheptacyclo-[27.2.2.1^9,13.1^24,27.0^1,5.0^14,22.0^17,21]pentatriaconta-9(35),10,12,14,16,21,24,26-octaene 28,28-dioxide]
≤ 100 | ≤ 500 | CC1(C)COc2cc(ccn2)-c2ccc3c(c2Nc2nnc([nH]2)S(=O)(=O)N2CC4(CCN1C4)C2)CCC3 [Example 10, 23,23-dimethyl-25-oxa-16λ^6-thia-11,13,14,17,22,27,33-heptaazaheptacyclo[24.3.1.1^12,15.1^17,19.1^19,22.0^2,10.0^5,9]tritriaconta-1(29),2,4,9,12,14,26(30),27-octaene-16,16-dioxide]
≤ 500 | ≤ 500 | CN1CCOc2cc(ccn2)-c2ccc3c(c2Nc2nnc([nH]2)S(=O)(=O)N2CC[C@@H](C1)C2)CCC3 [Example 12, (20S)-22-methyl-25-oxa-16λ^6-thia-11,13,14,17,22,27,32-heptaazahexacyclo[24.3.1.1^12,15.1^17,20.0^2,10.0^5,9]dotriaconta-1(29),2,4,9,12,14,26(30),27-octaene-16,16-dioxide]
